Measurements from ChEMBL document CHEMBL3832035, “DailyMed|setid=5c133dfe-3cb5-426b-ac30-daf814e12c47 | FAMCICLOVIR - famciclovir tablet, film coated|Golden State Medical Supply, Inc”.
Several values for one entry are separate records, joined by “and”; a condition that tells them apart may be missing. Equal entries are not always repeated.

Tested on: Homo sapiens
Test: Mean pharmacokinetic parameters for Penciclovir following single dose oral or IV administration of […] to healthy adult subjects and patients with different degrees of renal impairment.
Type: ADME, organism-based
Set-up: dose 1000 mg, dose 250 mg, dose 125 mg, dose 500 mg, route oral
Details: in vivo, regimen Single dose; for Excretion: tissue Urine
[1] = iv, dosed compound id 4, dosed compound name PENCICLOVIR, gender male, tissue Plasma
[2] = po, dose 500 mg, dosed compound id 40, dosed compound name FAMCICLOVIR, gender male, tissue Plasma

Compound: Nc1nc2c(ncn2CCC(CO)CO)c(=O)[nH]1 [PENCICLOVIR]
- Excretion (iv, 5 mg/kg, dosed compound id 4, dosed compound name PENCICLOVIR, gender male, study dosing duration 24 hours): 91%
- F (iv, at 400 mg, dosed compound id 4, dosed compound name PENCICLOVIR, gender male, route oral, tissue Plasma): 77%
- Vd_beta (iv, dose 400 mg, dosed compound id 4, dosed compound name PENCICLOVIR, gender male, tissue Plasma): 1.08 L/kg
- CL [1]: 36.6 L/h
- t1/2 [1]: 2 h
- Excretion (po, at 500 mg, dosed compound id 40, dosed compound name FAMCICLOVIR, gender male, study dosing duration 72 hours): 82%
- CL_renal (po, dose 500 mg, dosed compound id 40, dosed compound name FAMCICLOVIR, gender female, tissue Plasma): 21.8 L/h
- CL_renal [2]: 28.5 L/h and 27.7 L/h
- Tmax [2]: 0.9 h
- t1/2 [2]: 2.3 h
- AUC (po, dosed compound id 40, dosed compound name FAMCICLOVIR, gender female, tissue Plasma): 11100 ng·h/mL
- AUC (po, dosed compound id 40, dosed compound name FAMCICLOVIR, gender male, tissue Plasma): 9300 ng·h/mL
